The test system of one data set is HCT116 cells. The data set is described as follows: Effects on HCT116 colorectal cancer cell viability (cell titre blue, 72 hours). The following applies: Homo sapiens, HCT-116, HCT116 cell line. The data set is classed as cell-based.
Another data set concerns KRAS G12V HeLa cell line. The data set is described as follows: Wild-type versus KRAS HeLa cell viability: oncogenic KrasG12V transgene. The data set is classed as cell-based. As to conditions: Homo sapiens; HeLa cells expressing KRAS G12V, 72 hours. Here is the method:
Assay to Measure the Effects of Compounds of the Invention on Wild-Type Versus KRAS HeLa Cell Viability
Identifying synthetic lethal interactions between targeted small molecule therapies and characterised oncogenic mutations is a goal of modern oncology drug discovery efforts. To this end, PLK1-PBD inhibitors were tested on HeLa cells engineered to inducibly express wild-type or oncogenic KrasG12V transgenes using the FLP-in/T-Rex system (Invitrogen). Cells were plated, and then treated with or without Doxycycline to induce transgene expression, and then treated with serially-diluted PBD inhibitors. After 72 hours of incubation, cell viability was assessed using the Cell Titre Blue reagent (Promega) and a BMG Pherastar plate reader. The effect of PBD inhibition on cell viability with either wild-type or oncogenic G12V KRAS was assessed using the graphing/curve-fitting packages in GraphPad Prism.

The target of another data set is cytochrome P450 2D6 (Homo sapiens, UniProt P10635). Nature of the data set: Cytochrome P450 inhibition, 2D6. The data set is classed as in vitro ADME.
The next data set addresses cytochrome P450 2C9 (Homo sapiens, UniProt P11712). The data set is described as follows: Cytochrome P450 inhibition, 2C9. The format is in vitro ADME.
In the next data set the test system is phospho-histone H3. The data set is described as follows: Western blotting of tumours 24 hours after a single dose. The data set is classed as in vivo. As to conditions: mice with established tumours. As for the experimental part: In a separate experiment, eight mice with established tumours were treated with the compound of Example 33 and euthanised 24 hours after administration of a single dose.

The test system of data set [1] is HCT116 cells (a mutant KRAS G-13D expressing cell line). Nature of the data set: Drug resistance studies in HCT116 cells. As to conditions: five times the half maximal growth inhibiting amount, twenty two days. The format is cell-based.
Data set [2] relates to glioblastoma cell line 906746. The data set is described as follows: Glioblastoma cancer cell viability, cell line 906746. The data set is classed as cell-based. As for the experimental part:
(§1) Assay to Measure the Effects of Compounds of the Invention on Glioblastoma Cancer Cell Viability
(§2) The compound of Example 33 was tested for inhibitory activity against the glioblastoma cell lines in Table 7 below.

The test system of data set [3] is glioblastoma cell line 909750. Nature of the data set: Glioblastoma cancer cell viability, cell line 909750. The format is cell-based. As for the experimental part: as §1, §2
Data set [4] has as its system glioblastoma cell line 909745. The data set is described as follows: Glioblastoma cancer cell viability, cell line 909745. The data set is classed as cell-based. As for the experimental part:
as §1, §2

Data set [5] deals with glioblastoma cell line 946370. The data set is described as follows: Glioblastoma cancer cell viability, cell line 946370. The data set is classed as cell-based. Here is the method:
as §1, §2

The target in a further data set is T1, AURKC (Homo sapiens, UniProt Q9UQB9).
T1 construct: purchased DiscoverX
Nature of the data set: Kinase selectivity assay (DiscoverX KinomeScreen), AURKC. As to conditions: read-out: % Control. The format is binding. Here is the method:
(§3) The compound of Example 33 was tested for off-target activity against a panel of fifty five kinases bearing functional or structural similarity to PLK1 at a concentration of 5 μM using the DiscoverX KinomeScreen assay.

Another data set addresses T2, CSNK2A1 (Homo sapiens, UniProt P68400).
T2 construct: purchased DiscoverX
The data set is described as follows: Kinase selectivity assay (DiscoverX KinomeScreen), CSNK2A1. The following applies: CSNK2A1, 5 μM; read-out: % Control. The format is binding. Here is the method: as §3

The target of the next data set is T3, CSNK2A2 (Homo sapiens, UniProt P19784).
T3 construct: purchased DiscoverX
The data set is described as follows: Kinase selectivity assay (DiscoverX KinomeScreen), CSNK2A2. The format is binding. As to conditions: CSNK2A2, 5 μM; read-out: % Control. As for the experimental part:
as §3

A further data set has as its system EIF2AK4. Nature of the data set: Kinase selectivity assay (DiscoverX KinomeScreen), EIF2AK4. The format is binding. The following applies: EIF2AK4, 5 μM. As for the experimental part: as §3
In a further data set the target is T4, GSG2 (Homo sapiens, UniProt Q8TF76).
T4 construct: purchased DiscoverX
The data set is described as follows: Kinase selectivity assay (DiscoverX KinomeScreen), GSG2. The format is binding. The following applies: GSG2, 5 μM; read-out: % Control. Here is the method: as §3

The next data set concerns the target T5, NEK10 (Homo sapiens, UniProt Q6ZWH5).
T5 construct: purchased DiscoverX
The data set is described as follows: Kinase selectivity assay (DiscoverX KinomeScreen), NEK10. As to conditions: NEK10, 5 μM; read-out: % Control. The format is binding. As for the experimental part:
as §3

The target of a further data set is T6, NEK5 (Homo sapiens, UniProt Q6P3R8).
T6 construct: purchased DiscoverX
Nature of the data set: Kinase selectivity assay (DiscoverX KinomeScreen), NEK5. The format is binding. The following applies: NEK5, 5 μM; read-out: % Control. As for the experimental part: as §3

A further data set addresses T7, NEK7 (Homo sapiens, UniProt Q8TDX7).
T7 construct: purchased DiscoverX
The data set is described as follows: Kinase selectivity assay (DiscoverX KinomeScreen), NEK7. The data set is classed as binding. The following applies: NEK7, 5 μM; read-out: % Control. Here is the method: as §3

The target in a further data set is T8, PLK4 (Homo sapiens, UniProt O00444).
T8 construct: purchased DiscoverX
The data set is described as follows: Kinase selectivity assay (DiscoverX KinomeScreen), PLK4. As to conditions: PLK4, 5 μM; read-out: % Control. The format is binding. Here is the method:
as §3

A further data set has as its target T9, STK35 (Homo sapiens, UniProt Q8TDR2).
T9 construct: purchased DiscoverX
Nature of the data set: Kinase selectivity assay (DiscoverX KinomeScreen), STK35. The format is binding. The following applies: STK35, 5 μM; read-out: % Control. As for the experimental part: as §3

Where a name gives a salt, the structure may show the parent alone.

T1 sequence (Q9UQB9 whole entry): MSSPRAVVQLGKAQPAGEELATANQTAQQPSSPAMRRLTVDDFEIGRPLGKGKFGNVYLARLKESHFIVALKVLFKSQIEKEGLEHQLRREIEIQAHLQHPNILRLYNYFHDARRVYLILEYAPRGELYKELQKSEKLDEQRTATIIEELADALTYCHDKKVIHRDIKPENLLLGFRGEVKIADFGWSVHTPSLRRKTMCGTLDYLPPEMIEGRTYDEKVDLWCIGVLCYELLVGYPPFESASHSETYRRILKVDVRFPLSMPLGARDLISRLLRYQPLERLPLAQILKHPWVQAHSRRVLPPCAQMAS
T4 sequence (Q8TF76 whole entry): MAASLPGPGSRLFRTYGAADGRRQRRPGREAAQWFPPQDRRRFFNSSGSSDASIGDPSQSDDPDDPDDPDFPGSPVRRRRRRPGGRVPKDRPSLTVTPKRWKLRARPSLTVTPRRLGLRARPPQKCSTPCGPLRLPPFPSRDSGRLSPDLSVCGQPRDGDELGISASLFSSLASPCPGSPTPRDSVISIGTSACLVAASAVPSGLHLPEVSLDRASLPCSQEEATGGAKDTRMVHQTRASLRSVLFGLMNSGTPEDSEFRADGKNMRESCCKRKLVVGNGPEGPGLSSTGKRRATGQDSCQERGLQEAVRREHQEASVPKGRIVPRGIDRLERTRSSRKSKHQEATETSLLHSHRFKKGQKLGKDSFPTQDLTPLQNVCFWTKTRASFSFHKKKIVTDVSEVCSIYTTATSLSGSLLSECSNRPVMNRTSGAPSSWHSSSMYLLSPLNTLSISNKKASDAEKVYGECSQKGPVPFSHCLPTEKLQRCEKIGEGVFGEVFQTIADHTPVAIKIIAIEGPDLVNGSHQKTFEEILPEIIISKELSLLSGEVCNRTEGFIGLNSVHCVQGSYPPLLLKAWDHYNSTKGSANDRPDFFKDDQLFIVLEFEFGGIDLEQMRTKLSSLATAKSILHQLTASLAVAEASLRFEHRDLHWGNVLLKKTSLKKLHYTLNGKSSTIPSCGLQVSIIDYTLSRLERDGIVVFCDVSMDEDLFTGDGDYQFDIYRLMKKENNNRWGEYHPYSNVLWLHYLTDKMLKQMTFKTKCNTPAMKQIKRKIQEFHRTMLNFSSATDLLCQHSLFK
T9 sequence (Q8TDR2 whole entry): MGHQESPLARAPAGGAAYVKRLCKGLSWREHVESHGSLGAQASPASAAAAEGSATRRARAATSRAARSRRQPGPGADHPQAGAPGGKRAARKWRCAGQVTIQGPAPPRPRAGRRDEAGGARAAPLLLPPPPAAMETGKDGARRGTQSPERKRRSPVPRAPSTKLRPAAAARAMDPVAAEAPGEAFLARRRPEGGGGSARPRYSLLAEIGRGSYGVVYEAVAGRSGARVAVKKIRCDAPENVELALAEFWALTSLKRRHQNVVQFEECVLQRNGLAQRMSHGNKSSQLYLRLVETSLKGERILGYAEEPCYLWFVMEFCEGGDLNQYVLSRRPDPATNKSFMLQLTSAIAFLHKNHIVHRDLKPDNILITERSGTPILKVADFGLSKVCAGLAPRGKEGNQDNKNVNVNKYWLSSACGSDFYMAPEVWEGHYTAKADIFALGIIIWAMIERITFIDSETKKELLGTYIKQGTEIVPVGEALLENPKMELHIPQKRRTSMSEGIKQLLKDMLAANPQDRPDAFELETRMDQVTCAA
T3 sequence (P19784 whole entry): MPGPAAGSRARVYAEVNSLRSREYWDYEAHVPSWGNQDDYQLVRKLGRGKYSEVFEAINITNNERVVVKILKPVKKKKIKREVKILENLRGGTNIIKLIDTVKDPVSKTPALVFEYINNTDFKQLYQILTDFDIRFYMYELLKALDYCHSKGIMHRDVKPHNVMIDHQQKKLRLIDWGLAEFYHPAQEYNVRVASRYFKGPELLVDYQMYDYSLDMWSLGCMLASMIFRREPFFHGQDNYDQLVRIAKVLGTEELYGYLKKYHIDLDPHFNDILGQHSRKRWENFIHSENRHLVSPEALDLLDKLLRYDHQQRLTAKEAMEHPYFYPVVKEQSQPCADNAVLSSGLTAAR
T6 sequence (Q6P3R8 whole entry): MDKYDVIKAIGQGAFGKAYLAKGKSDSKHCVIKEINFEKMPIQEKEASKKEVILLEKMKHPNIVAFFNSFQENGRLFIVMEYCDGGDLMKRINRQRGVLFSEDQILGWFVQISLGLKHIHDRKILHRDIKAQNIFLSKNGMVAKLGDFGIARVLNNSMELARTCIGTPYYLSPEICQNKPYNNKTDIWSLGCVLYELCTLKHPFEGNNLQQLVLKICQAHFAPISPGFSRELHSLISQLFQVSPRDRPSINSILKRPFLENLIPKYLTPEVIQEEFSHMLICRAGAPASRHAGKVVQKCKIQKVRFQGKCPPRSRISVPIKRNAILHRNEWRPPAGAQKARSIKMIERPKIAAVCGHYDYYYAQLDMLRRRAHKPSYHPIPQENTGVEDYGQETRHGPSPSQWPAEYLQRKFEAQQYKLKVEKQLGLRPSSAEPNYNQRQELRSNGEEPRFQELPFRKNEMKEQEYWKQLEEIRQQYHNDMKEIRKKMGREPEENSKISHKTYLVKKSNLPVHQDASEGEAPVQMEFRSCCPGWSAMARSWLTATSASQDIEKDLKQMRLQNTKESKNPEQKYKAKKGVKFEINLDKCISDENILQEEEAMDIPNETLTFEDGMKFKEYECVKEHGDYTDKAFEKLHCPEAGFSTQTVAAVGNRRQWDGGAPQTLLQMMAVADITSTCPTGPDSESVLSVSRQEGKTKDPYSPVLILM
Chain of cytochrome P450 2D6 (P10635 whole entry): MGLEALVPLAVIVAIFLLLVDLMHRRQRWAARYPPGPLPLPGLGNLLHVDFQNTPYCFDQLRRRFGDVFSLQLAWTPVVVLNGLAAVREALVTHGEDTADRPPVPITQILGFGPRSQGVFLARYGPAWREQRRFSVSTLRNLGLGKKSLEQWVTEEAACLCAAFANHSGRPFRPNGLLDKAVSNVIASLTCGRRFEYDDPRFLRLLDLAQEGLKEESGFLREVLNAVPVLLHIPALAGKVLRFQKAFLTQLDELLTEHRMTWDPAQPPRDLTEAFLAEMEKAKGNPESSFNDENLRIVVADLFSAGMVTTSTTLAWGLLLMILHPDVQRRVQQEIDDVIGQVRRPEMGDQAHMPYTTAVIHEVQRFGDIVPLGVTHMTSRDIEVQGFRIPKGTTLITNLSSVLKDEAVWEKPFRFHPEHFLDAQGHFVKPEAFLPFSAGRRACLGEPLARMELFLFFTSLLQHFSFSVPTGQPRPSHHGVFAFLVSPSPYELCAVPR
T2 sequence (P68400 whole entry): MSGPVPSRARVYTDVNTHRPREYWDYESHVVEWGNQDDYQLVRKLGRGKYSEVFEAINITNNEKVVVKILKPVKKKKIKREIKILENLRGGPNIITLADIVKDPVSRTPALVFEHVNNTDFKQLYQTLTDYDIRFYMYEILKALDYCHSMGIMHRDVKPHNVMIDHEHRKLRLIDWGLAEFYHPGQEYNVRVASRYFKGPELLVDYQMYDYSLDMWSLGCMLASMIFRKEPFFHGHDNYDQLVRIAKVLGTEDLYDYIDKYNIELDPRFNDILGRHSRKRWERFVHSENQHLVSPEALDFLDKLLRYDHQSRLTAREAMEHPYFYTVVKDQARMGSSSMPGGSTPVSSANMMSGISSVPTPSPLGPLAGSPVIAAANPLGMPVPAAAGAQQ
Chain of cytochrome P450 2C9 (P11712 whole entry): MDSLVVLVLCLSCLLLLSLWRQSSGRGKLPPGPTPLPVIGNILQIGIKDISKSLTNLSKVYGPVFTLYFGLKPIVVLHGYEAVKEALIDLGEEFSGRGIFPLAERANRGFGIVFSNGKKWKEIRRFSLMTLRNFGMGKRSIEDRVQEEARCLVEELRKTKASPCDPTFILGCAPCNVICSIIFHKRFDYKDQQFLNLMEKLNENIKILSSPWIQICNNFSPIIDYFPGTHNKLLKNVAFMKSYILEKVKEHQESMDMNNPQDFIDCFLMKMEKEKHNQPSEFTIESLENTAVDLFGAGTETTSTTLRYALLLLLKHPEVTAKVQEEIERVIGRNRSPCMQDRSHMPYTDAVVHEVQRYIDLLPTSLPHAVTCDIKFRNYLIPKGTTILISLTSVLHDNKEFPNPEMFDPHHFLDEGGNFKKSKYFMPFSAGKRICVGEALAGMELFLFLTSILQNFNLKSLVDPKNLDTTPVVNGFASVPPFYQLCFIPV
T7 sequence (Q8TDX7 whole entry): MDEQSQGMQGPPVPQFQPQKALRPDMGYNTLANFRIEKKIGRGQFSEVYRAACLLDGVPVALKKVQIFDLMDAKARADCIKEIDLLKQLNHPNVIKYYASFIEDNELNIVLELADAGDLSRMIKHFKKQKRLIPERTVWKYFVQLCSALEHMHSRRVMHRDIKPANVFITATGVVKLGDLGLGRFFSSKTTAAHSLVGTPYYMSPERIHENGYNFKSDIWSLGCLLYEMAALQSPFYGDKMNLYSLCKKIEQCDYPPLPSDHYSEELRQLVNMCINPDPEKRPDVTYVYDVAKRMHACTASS

With `CN(C)CCNC(=O)c1ccc(-c2ccc(-c3ccc(Cl)cc3)n2-c2ccccc2C(F)(F)F)cc1` [Example 33, 4-[5-(4-chlorophenyl)-1-[2-(trifluoromethyl)phenyl]pyrrol-2-yl]-N-[2-(dimethylamino)ethyl]benzamide Hydrochloride], the GI50 in the data set with HCT116 cells and with KRAS G12V HeLa cell line was 10 nM in each case. For the same molecule, on cytochrome P450 2D6, the “cytochrome P450 inhibition 2D6” value was greater than 10 µM. Further, the “cytochrome P450 inhibition 2C9” value on cytochrome P450 2C9 is greater than 10 µM. Further, the “phospho-histone H3 in tumours (Western blotting)” value in the data set with phospho-histone H3 is “clear induction of phospho-histone H3”. The “formation of drug-resistant colonies” value in data set [1] is listed as “not”. Besides, the half-maximal inhibitory concentration (IC50) (usually the point on the concentration scale where inhibition reaches its midpoint) in [2] came out at 430 nM; in data set [3] it was 929 nM; in data set [4] it was 1370 nM; in data set [5] it was 1670 nM. The remaining activity at 5 µM worked out at 85% at AURKC; 96% on CSNK2A1; 92% on CSNK2A2; 77% at GSG2; 94% at NEK10; 99% on NEK5. For the same molecule, the results for the remaining activity at 5 µM on NEK7, at PLK4 and on STK35 were 79%, 90% and 71%, respectively. The “% Control” value in the data set on EIF2AK4 is 97%.

For the origin of these results see patent US11208405B2, “Pyrrole derivatives as PLK1 inhibitors” (SENTINEL ONCOLOGY LIMITED, priority 2017, dated 2021).
